1 compound from PMC10296195, “C-Methylated Spermidine Derivatives: Convenient Syntheses and Antizyme-Related Effects” (Biomolecules, 2023) can be followed below.

Like-named read-outs stand apart in the source and are kept apart here.

In the experiment the target is T1, mOAZ1 (Mus musculus, UniProt P54369).
T1 construct: gene Oaz1; full-length mouse antizyme 1 (+1 frameshift product); expressed in E. coli Rosetta (DE3) from pET-15b-2c-His-mAZ (XhoI site)
Briefly: isothermal titration calorimetry. It counts as binding. The source says:
isothermal titration calorimetry on mOAZ1
On the technique in general: Isothermal titration calorimetry measures the heat released or taken up as one component is titrated into another.

T1 sequence (P54369 2-227): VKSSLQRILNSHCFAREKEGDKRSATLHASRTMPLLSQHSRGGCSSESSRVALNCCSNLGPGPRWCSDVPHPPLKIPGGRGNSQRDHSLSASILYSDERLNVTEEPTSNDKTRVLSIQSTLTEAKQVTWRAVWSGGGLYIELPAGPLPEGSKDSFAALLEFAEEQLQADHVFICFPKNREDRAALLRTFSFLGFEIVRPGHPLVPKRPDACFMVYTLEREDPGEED

For `NCCCNCCCCNCCCN` [Spm], the Kd by setting is: (read-out: Ka ^b, M^-1 (converted)) 370 nM; (read-out: Kd ^c) 370 nM.
